Test results as given in PMC9939733 (The Journal of Biological Chemistry, 2023).

Columns and labels:
R132C/S280F IDH1 = target: T1, R132C/S280F IDH1 (Homo sapiens, UniProt O75874, R132C/S280F); test: Steady-state kinetics, NADPH turnover assay; format: biochemical
T1 construct: made in house
Procedure: independent runs, each composed of technical duplicates (n = 2; mean ± SD); c) R132C/S280F IDH1 assays
monitoring NADPH turnover were performed as reported (3). […]

R132H IDH1 [1] = target: T2, R132H IDH1 (Homo sapiens, UniProt O75874, R132H); test: Absorbance assay, variant activity in the presence of equimolar 2OG (inhibition screen); format: biochemical; set-up: made in house; host or cells: Escherichia coli BL21(DE3) pLyS; settings: […] 2OG and […] test compound, 0.03 μM R132H IDH1, 50 μM NADPH
T2 sequence (O75874 whole entry R132H): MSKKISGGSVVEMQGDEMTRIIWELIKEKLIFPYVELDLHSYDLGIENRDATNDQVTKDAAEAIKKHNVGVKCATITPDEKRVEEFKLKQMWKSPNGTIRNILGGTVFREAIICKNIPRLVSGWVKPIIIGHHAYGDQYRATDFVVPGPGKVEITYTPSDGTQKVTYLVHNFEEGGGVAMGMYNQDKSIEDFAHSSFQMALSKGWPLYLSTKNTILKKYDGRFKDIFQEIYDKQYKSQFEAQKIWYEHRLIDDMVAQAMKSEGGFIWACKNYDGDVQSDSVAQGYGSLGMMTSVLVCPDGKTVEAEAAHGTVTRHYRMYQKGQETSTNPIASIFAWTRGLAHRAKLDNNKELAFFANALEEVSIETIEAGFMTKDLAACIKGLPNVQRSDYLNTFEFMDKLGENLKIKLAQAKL
In short: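 Quadruplicate technical repeats are run. Reaction start is by reagent dispenser.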

R132H IDH1 [2] = target: T2, R132H IDH1; test: CPMG 1H NMR binding study; set-up: made in house; host or cells: Escherichia coli BL21(DE3) pLyS; settings: 50 µM ligand, R132H IDH1 titrated, 10 mM CaCl2, pH 7.5
Procedure: Binding studies were performed at 298K in buffer (50 mM Tris-d11, pH 7.5, 10%v/v D2O, 10 mM CaCl2) using CPMG NMR spectroscopy ([56]) and a water suppression pulse sequence.
similar manner as does 2OG. 1H NMR (CPMG-edited (2), 700 MHz) binding studies of R132H IDH1 with (a)
2OG/2OG derivative. […] Red spectra: 50 µM
Assays were performed as described in the Experimental
Procedures Section by titrating a concentrated R132H IDH1 stock solution (1.4 mM) into a mixture containing
(1 picture or pasted object on this page, not shown here)

T1 sequence (O75874 whole entry R132C/S280F): as the sequence (O75874 whole entry R132H) above, with H132C, S280F counted along it

Kmapp (R132C/S280F IDH1): 0.04 ± 0.01 mM
activity [%] (%-substrate conversion after 20 min incubation) (R132H IDH1 [1]): 100%
signal depletion (CPMG 1H NMR) (R132H IDH1 [2]): ~80%
Compound: O=C(O)CCC(=O)C(=O)O [2OG, 2-oxoglutarate, reference compound]
